In patent US4190666A, “Anti-inflammatory 4,5-diarly-2-(substituted-thio)imidazoles and their corresponding sulfoxides and sulfones” (E. I. Du Pont de Nemours and Company, priority 1978, dated 1980):

Tested on: established adjuvant-induced arthritis in rats
Assay: Established adjuvant-induced arthritis in rats (therapeutic, paw volume)
Format: in vivo, Charles River Lewis male rats
Details: established arthritis, 7 daily doses, ED50% decrease from control paw volume, Tables I-III; for ED50: Rattus norvegicus, po, read-out: Adjuvant Arthritis (ED50%); for Adjuvant Arthritis (ED50%): oral

Compound | ED50 [mg/kg] | other results
[O-][S+](CC(F)(F)F)c1nc(-c2ccccc2)c(-c2ccccc2)[nH]1 (centres unmarked) [Example 2, 4,5-Diphenyl-2-(2,2,2-trifluoroethylsulfinyl)imidazole] | 48 | 
O=S(=O)(CC(F)(F)F)c1nc(-c2ccccc2)c(-c2ccccc2)[nH]1 [Example 3, 4,5-Diphenyl-2-(2,2,2-trifluoroethylsulfonyl)imidazole] | 12 | 
FC(F)(F)CSc1nc(-c2ccc(Cl)cc2)c(-c2ccc(Cl)cc2)[nH]1 [Example 7, 4,5-bis(4-Chlorophenyl)-2-(2,2,2-trifluoroethylthio)imidazole] | 5 | 
[O-][S+](CC(F)(F)F)c1nc(-c2ccc(Cl)cc2)c(-c2ccc(Cl)cc2)[nH]1 (centres unmarked) [Example 8, 4,5-bis(4-chlorophenyl)-2-(2,2,2-trifluoroethylsulfinyl)imidazole] | 3 | 
O=S(=O)(CC(F)(F)F)c1nc(-c2ccc(Cl)cc2)c(-c2ccc(Cl)cc2)[nH]1 [Example 9, 4,5-bis(4-Chlorophenyl)-2-(2,2,2-trifluoroethylsulfonyl)imidazole] | 4.5 | 
CCSc1nc(-c2ccc(OC)cc2)c(-c2ccc(OC)cc2)[nH]1 [Example 10, 2-Ethylthio-4,5-bis(4-methoxyphenyl)imidazole] | 4.7 | 
C=CCSc1nc(-c2ccc(OC)cc2)c(-c2ccc(OC)cc2)[nH]1 [Example 11, 2-Allylthio-4,5-bis(4-methoxyphenyl)imidazole] | 22 | 
CC[S+]([O-])c1nc(-c2ccc(OC)cc2)c(-c2ccc(OC)cc2)[nH]1 (centres unmarked) [Example 13, 2-Ethylsulfinyl-4,5-bis(4-methoxyphenyl)imidazole] | 10 | 
CCS(=O)(=O)c1nc(-c2ccc(OC)cc2)c(-c2ccc(OC)cc2)[nH]1 [Example 14, 2-Ethylsulfonyl-4,5-bis(4-methoxyphenyl)imidazole] | 5.2 | 
COc1ccc(-c2nc(SC)[nH]c2-c2ccc(OC)cc2)cc1 [Example 15, 4,5-bis(4-Methoxyphenyl)-2-methylthioimidazole] | 4.4 | 
COc1ccc(-c2nc(SCC(C)=O)[nH]c2-c2ccc(OC)cc2)cc1 [Example 16, 2-Acetonylthio-4,5-bis(4-methoxyphenyl)imidazole] | 9.4 | 
CSc1nc(-c2ccc(Cl)cc2)c(-c2ccc(Cl)cc2)[nH]1 [Example 26, 4,5-bis(4-chlorophenyl)-2-methylthioimidazole] | 3 | 
CCCSc1nc(-c2ccc(OC)cc2)c(-c2ccc(OC)cc2)[nH]1 [Example 27] | 9 | 
CSc1nc(-c2ccc(F)cc2)c(-c2ccc(F)cc2)[nH]1 [Example 28] | 3.5 | 
COc1ccc(-c2nc(SC(F)F)[nH]c2-c2ccc(OC)cc2)cc1 [Example 29] | 1.8 | 
FC(F)Sc1nc(-c2ccccc2)c(-c2ccccc2)[nH]1 [Example 30] | 21 | 
FC(F)Sc1nc(-c2ccc(Cl)cc2)c(-c2ccc(Cl)cc2)[nH]1 [Example 31] | 0.35 | 
Fc1ccc(-c2nc(SC(F)F)[nH]c2-c2ccc(F)cc2)cc1 [Example 32] | 0.42 | 
CSc1nc(-c2ccc(Cl)cc2)c(-c2ccc(F)cc2)[nH]1 [Example 33] | 3.8 | 
CSc1nc(-c2ccc(C(F)(F)F)cc2)c(-c2ccccc2)[nH]1 [Example 34] | 20 | 
CSc1nc(-c2ccc(F)cc2)c(-c2ccc(C(F)(F)F)cc2)[nH]1 [Example 35] | 17 | 
CSc1nc(-c2ccc(Cl)cc2)c(-c2ccc(C(F)(F)F)cc2)[nH]1 [Example 36] | 3.6 | 
CSc1nc(-c2ccc3c(c2)OCO3)c(-c2ccc3c(c2)OCO3)[nH]1 [Example 37] | 20 | 
COc1ccc(-c2nc(SC(F)(F)C(F)F)[nH]c2-c2ccc(OC)cc2)cc1 [Example 38] | 4.2 | 

Compound | ED50 [mg/kg] | other results
Fc1ccc(-c2nc(SC(F)(F)C(F)F)[nH]c2-c2ccc(F)cc2)cc1 [Example 40] | 0.075 | 
FC(Cl)C(F)(F)Sc1nc(-c2ccccc2)c(-c2ccccc2)[nH]1 (centres unmarked) [Example 41] |  | Adjuvant Arthritis (ED50%): 3.9 mg/kg
Fc1ccc(-c2[nH]c(SC(F)(F)C(F)F)nc2-c2ccc(Cl)cc2)cc1 [Example 42] | 0.18 | 
Cc1ccc(-c2nc(SC(F)(F)C(F)F)[nH]c2-c2ccc(C)cc2)cc1 [Example 43] | 18 | 
COc1ccc(-c2nc(SC(F)(F)C(F)F)[nH]c2-c2ccccc2)cc1 [Example 44] | 20 | 
FC(F)C(F)(F)Sc1nc(-c2ccc(Cl)cc2)c(-c2ccccc2)[nH]1 [Example 45] | 0.3 | 
FC(F)C(F)(F)Sc1nc(-c2ccc3c(c2)OCO3)c(-c2ccc3c(c2)OCO3)[nH]1 [Example 46] | 10 | 
FC(F)C(F)(F)Sc1nc(-c2ccc(C(F)(F)F)cc2)c(-c2ccccc2)[nH]1 [Example 47] | 4.5 | 
Fc1ccc(-c2nc(SC(F)(F)C(F)F)[nH]c2-c2ccc(C(F)(F)F)cc2)cc1 [Example 48] | 1.5 | 
Fc1ccc(-c2nc(SC(F)(F)C(F)F)[nH]c2-c2ccccc2)cc1 [Example 49] | 0.2 | 
FC(F)C(F)(F)Sc1nc(-c2ccccc2Cl)c(-c2cccc(Cl)c2)[nH]1 [Example 50] | 1.2 | 
COc1ccc(-c2nc(SC(F)(F)C(F)Br)[nH]c2-c2ccc(OC)cc2)cc1 (centres unmarked) [Example 51, 2-(2-bromo-1,1,2-trifluoroethylthio)-4,5-bis(4-methoxyphenyl)imidazole] |  | Adjuvant Arthritis (ED50%): 10 mg/kg
FC(Br)C(F)(F)Sc1nc(-c2ccccc2)c(-c2ccccc2)[nH]1 (centres unmarked) [Example 52, 2-(2-bromo-1,1,2-trifluoroethylthio)-4,5-diphenylimidazole] |  | Adjuvant Arthritis (ED50%): 11 mg/kg
CN(C)c1ccc(-c2nc(SC(F)(F)C(F)F)[nH]c2-c2ccccc2)cc1 [Example 53] | 2.5 | Adjuvant Arthritis (ED50%) (listed as 122): 4.0 mg/kg
C=CC[S+]([O-])c1nc(-c2ccc(OC)cc2)c(-c2ccc(OC)cc2)[nH]1 (centres unmarked) [Example 54] | 11 | 
C=CCS(=O)(=O)c1nc(-c2ccc(OC)cc2)c(-c2ccc(OC)cc2)[nH]1 [Example 55] | 11 | 
COc1ccc(-c2nc([S+](C)[O-])[nH]c2-c2ccc(OC)cc2)cc1 (centres unmarked) [Example 56] | 6.2 | 
COc1ccc(-c2nc(S(C)(=O)=O)[nH]c2-c2ccc(OC)cc2)cc1 [Example 57] | 6.4 | 
C[S+]([O-])c1nc(-c2ccc(Cl)cc2)c(-c2ccc(Cl)cc2)[nH]1 (centres unmarked) [Example 59] | 2.3 | 
CCC[S+]([O-])c1nc(-c2ccc(OC)cc2)c(-c2ccc(OC)cc2)[nH]1 (centres unmarked) [Example 61] | 13 | 
CCCS(=O)(=O)c1nc(-c2ccc(OC)cc2)c(-c2ccc(OC)cc2)[nH]1 [Example 62] | 9 | 
COc1ccc(-c2nc(S(=O)(=O)C(C)C)[nH]c2-c2ccc(OC)cc2)cc1 [Example 63] | 30 | 
[O-][S+](c1nc(-c2ccccc2)c(-c2ccccc2)[nH]1)C(F)(F)C(F)F (centres unmarked) [Example 66] | 0.18 | 
CS(=O)(=O)c1nc(-c2ccc(Cl)cc2)c(-c2ccc(Cl)cc2)[nH]1 [Example 67] | 2 | 

Compound | ED50 [mg/kg] | other results
[O-][S+](c1nc(-c2ccc(Cl)cc2)c(-c2ccc(Cl)cc2)[nH]1)C(F)(F)C(F)F (centres unmarked) [Example 68] | 0.2 | 
O=S(=O)(c1nc(-c2ccc(Cl)cc2)c(-c2ccc(Cl)cc2)[nH]1)C(F)(F)C(F)F [Example 69, 4,5-bis(4-chlorophenyl)-2-(1,1,2,2-tetrafluoroethylsulfonyl)imidazole] | 0.2 | 
O=S(=O)(CC(F)(F)F)c1nc(-c2ccc(F)cc2)c(-c2ccc(F)cc2)[nH]1 [Example 70] | 3.5 | 
CS(=O)(=O)c1nc(-c2ccc(F)cc2)c(-c2ccc(F)cc2)[nH]1 [Example 72] | 4.5 | 
O=S(=O)(c1nc(-c2ccccc2)c(-c2ccccc2)[nH]1)C(F)(F)C(F)Cl (centres unmarked) [Example 73] | 0.25 | 
O=S(=O)(c1nc(-c2ccccc2)c(-c2ccccc2)[nH]1)C(F)F [Example 75] | 0.35 | 
O=S(=O)(c1nc(-c2ccccc2)c(-c2ccccc2)[nH]1)C(F)(F)C(Cl)Cl [Example 76] | 1.5 | 
O=S(=O)(c1nc(-c2ccc(Cl)cc2)c(-c2ccc(Cl)cc2)[nH]1)C(F)F [Example 77] | 0.35 | 
O=S(=O)(c1nc(-c2ccc(F)cc2)c(-c2ccc(F)cc2)[nH]1)C(F)F [Example 78] | 0.1 | 
CS(=O)(=O)c1nc(-c2ccc(Cl)cc2)c(-c2ccc(F)cc2)[nH]1 [Example 79] | 2.8 | 
O=S(=O)(c1nc(-c2ccc(Cl)cc2)c(-c2ccc(F)cc2)[nH]1)C(F)(F)C(F)F [Example 80] | 0.09 | 
Cc1ccc(-c2nc(S(=O)(=O)C(F)(F)C(F)F)[nH]c2-c2ccc(C)cc2)cc1 [Example 81] | 0.35 | 
COc1cccc(-c2nc(S(=O)(=O)C(F)(F)C(F)F)[nH]c2-c2cccc(OC)c2)c1 [Example 84] | 4 | 
CS(=O)(=O)c1nc(-c2ccc(Cl)cc2)c(-c2ccccc2)[nH]1 [Example 85] | 30 | 
CS(=O)(=O)c1nc(-c2ccc(F)cc2)c(-c2ccc(C(F)(F)F)cc2)[nH]1 [Example 87] | 3.7 | 
CS(=O)(=O)c1nc(-c2ccc(Cl)cc2)c(-c2ccc(C(F)(F)F)cc2)[nH]1 [Example 88] | 2.2 | 
O=S(=O)(c1nc(-c2ccc(C(F)(F)F)cc2)c(-c2ccccc2)[nH]1)C(F)(F)C(F)F [Example 89] | 2.4 | 
O=S(=O)(c1nc(-c2ccc(Cl)cc2)c(-c2ccc(C(F)(F)F)cc2)[nH]1)C(F)(F)C(F)F [Example 90] | 1.8 | 
O=S(=O)(c1nc(-c2ccccc2Cl)c(-c2ccccc2Cl)[nH]1)C(F)(F)C(F)F [Example 91] | 0.8 | 
O=S(=O)(c1nc(-c2ccc(F)cc2)c(-c2ccccc2)[nH]1)C(F)(F)C(F)F [Example 92, 4(or 5)-(4-fluorophenyl)-5(or 4)-phenyl-2-(1,1,2,2-tetrafluoroethylsulfonyl)imidazole] | 0.027 | 
O=S(=O)(c1nc(-c2cccc(Cl)c2)c(-c2cccc(Cl)c2)[nH]1)C(F)(F)C(F)F [Example 93] | 0.16 | 
[O-][S+](c1nc(-c2ccc(Cl)cc2)c(-c2ccc(Cl)cc2)[nH]1)C(F)F (centres unmarked) [Example 94] | 0.19 | 
